Measured values from patent US6127333A, “Conjugates useful in the treatment of prostate cancer” (priority 1998, dated 2000).

Target: T1, York PSA (enzymatically active free PSA) (Homo sapiens, UniProt P07288)
T1 construct: 50% cleavage of the noted oligopeptide-cytotoxic agent conjugates with enzymatically active free PSA
Test: Recognition/cleavage of oligopeptide-vinca drug conjugates by free PSA
Format: biochemical
Conditions: PSA digestion buffer pH7.4, conjugate to PSA molar ratio 100 to 1, HPLC; when n > 1 value is an average
Method: Alternatively, the PSA digestion buffer utilized is 50 mM tris(hydroxymethyl)aminomethane pH7.4, 140 mM NaCl. The reaction is quenched after various reaction times by the addition of trifluoroacetic acid (TFA) to a final 1% (volume/volume). Alternatively the reaction is quenched with 10 mM ZnCl2. The quenched reaction was analyzed by HPLC on a reversed-phase C18 column using an aqueous 0.1%TFA/acetonitrile gradient. […] Unless otherwise indicated, the acetate salt of the conjugate was tested.

T1 sequence (P07288 25-261): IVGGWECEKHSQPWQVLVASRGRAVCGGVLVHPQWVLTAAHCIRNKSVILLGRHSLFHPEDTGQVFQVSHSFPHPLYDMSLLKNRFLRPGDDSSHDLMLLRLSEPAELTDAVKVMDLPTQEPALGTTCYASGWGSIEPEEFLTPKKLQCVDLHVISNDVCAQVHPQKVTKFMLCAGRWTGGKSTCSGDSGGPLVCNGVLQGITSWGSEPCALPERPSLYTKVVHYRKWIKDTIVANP

Substance | Time to 50% Substrate Cleavage by York PSA
4-des-Acetylvinblastine-23-(N-methoxy-diethyleneoxyacetyl-4-trans-L-Hyp-Ser-Ser-Chg-Gln-Ser-Val-BDAM) amide acetate salt | 14 min
4-des-Acetylvinblastine-23-(N-Acetyl-Ser-Ser-Ser-Chg-Gln-Ser-Val-BDAM) amide acetate salt [Ac-SSSChgQSV-1,4-BDAM-(dAc)-VIN] | 10 min
